Measured values reported in PubChem BioAssay (NCI).
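Each compound was tested at five concentrations against cells in 96-well plates for 48 hours. GI50: concentration for 50% inhibition of growth. TGI denotes the concentration required for complete inhibition of growth.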

Key:
Experiment in all cases: NCI-60 cell line screen, 48 h
ACHN renal = system: ACHN renal
OVCAR-3 ovarian = system: OVCAR-3 ovarian
786-0 renal = system: 786-0 renal
HOP-92 NSCLC = system: HOP-92 NSCLC
PC-3 prostate = system: PC-3 prostate
UACC-62 melanoma = system: UACC-62 melanoma
RXF 393 renal = system: RXF 393 renal
OVCAR-4 ovarian = system: OVCAR-4 ovarian
MALME-3M melanoma = system: MALME-3M melanoma
A498 renal = system: A498 renal

Compound | GI50 (ACHN renal) [µM] | TGI (ACHN renal) [µM] | GI50 (OVCAR-3 ovarian) [µM] | TGI (OVCAR-3 ovarian) [µM] | GI50 (786-0 renal) [µM] | TGI (786-0 renal) [µM] | GI50 (HOP-92 NSCLC) [µM] | TGI (HOP-92 NSCLC) [µM] | GI50 (PC-3 prostate) [µM] | TGI (PC-3 prostate) [µM] | GI50 (UACC-62 melanoma) [µM] | TGI (UACC-62 melanoma) [µM] | GI50 (RXF 393 renal) [µM] | TGI (RXF 393 renal) [µM] | TGI (OVCAR-4 ovarian) [µM] | TGI (MALME-3M melanoma) [µM] | TGI (A498 renal) [µM] | GI50 (A498 renal) [µM] | GI50 (OVCAR-4 ovarian) [µM] | GI50 (MALME-3M melanoma) [µM]
N#CC1=C(N)N=C(N2CCOCC2)C(C#N)C12Nc1ccccc1S2 (stereo unspecified) | 21.8 | 76 | 20.1 | 58.1 | 29.6 | 76.2 | 41.3 | > 100 | 20.1 | > 100 | 18.8 | 40.9 | 19 | > 100 | – | – | – | – | – | –
Cc1[nH]c(=O)n2c(C)nnc2c1C(=O)O | – | > 100 | – | > 100 | – | > 100 | – | > 100 | – | – | – | > 100 | – | > 100 | > 100 | > 100 | – | – | – | –
O=C1NC(c2ccc3ccccc3c2)Nc2ccccc21 (stereo unspecified) | – | > 100 | – | – | – | > 100 | – | > 100 | – | > 100 | – | > 100 | – | > 100 | > 100 | – | > 100 | – | – | –
CC1=C2CC[C@@]3(C)C(=CCC3O)C2(C)CCC1=O (stereo partly specified) | – | > 100 | – | > 100 | – | > 100 | – | > 100 | – | – | – | > 100 | – | > 100 | > 100 | > 100 | > 100 | – | – | –
c1cc2c(cc1C1OCC3C(c4ccc5c(c4)OCO5)OCC13)OCO2 (stereo unspecified) | – | > 100 | – | > 100 | – | > 100 | – | > 100 | – | – | – | > 100 | – | > 100 | > 100 | > 100 | > 100 | – | – | –
CC[O-].CC[O-].O=C1C=C([O-])C(=O)c2ccccc21.O=C1C=C([O-])C(=O)c2ccccc21.[Ti+4] | 71 | > 100 | > 100 | > 100 | > 100 | > 100 | > 100 | > 100 | – | – | 21.5 | > 100 | > 100 | > 100 | > 100 | > 100 | > 60.9 | 22.5 | > 100 | 9.89
NC(=O)c1c[nH]c2ncnc(N)c12 | 44.1 | > 100 | 23.5 | > 100 | > 100 | > 100 | – | – | 30.3 | > 100 | 95.6 | > 100 | – | – | > 100 | 71.1 | 67.4 | 22.9 | 24.1 | 21.3
c1ccc2cc(C3NCCc4[nH]cnc43)ccc2c1 (stereo unspecified) | – | > 100 | – | > 100 | – | > 100 | – | > 100 | – | – | – | > 100 | – | > 100 | > 100 | – | 88.5 | – | – | –
O=C(/C=C(/C=C/c1cccc2[nH]ccc12)OB(F)F)/C=C/c1cccc2[nH]ccc12 | 0.514 | 2.04 | 0.353 | 1.23 | 0.477 | 5.03 | 1.86 | 5.15 | 0.815 | 3.41 | 0.833 | 2.97 | – | – | 24.7 | 8.56 | 3.42 | 1.7 | 0.554 | 1.01
COc1cc(-c2oc3c(OC)c(O)c(OC)c(O)c3c(=O)c2OC)cc(OC)c1OC | – | > 100 | – | 95.9 | – | > 100 | – | – | – | > 100 | – | > 100 | – | – | > 100 | > 100 | > 100 | – | – | –
CSC1=CC(=O)c2ccccc2C1=O | 1.66 | 3.07 | 1.78 | 3.37 | 4.06 | 14.1 | 0.811 | 2.19 | 2.54 | 12.5 | 4.06 | 17.1 | 1.54 | 2.9 | 2.67 | 3.54 | – | – | 1.36 | 1.92
CC(=O)OC(C(=O)[O][Ge]([CH3])([CH3])[CH3])c1ccccc1 (stereo unspecified) | > 100 | > 100 | > 100 | > 100 | > 100 | > 100 | > 100 | > 100 | – | – | > 100 | > 100 | 0.264 | 7.09 | > 100 | > 100 | > 100 | > 100 | > 100 | > 100
CCOC(=O)CCc1c(C)c2c(OC)cc(OC)cc2oc1=O | – | > 100 | – | > 100 | – | > 100 | – | > 100 | – | – | – | – | – | 82.4 | > 100 | > 100 | – | – | – | –
CC1(C)N=C(N)N=C(N)N1c1ccc(OCC(=O)Nc2ccc(S(=O)(=O)F)cc2Cl)c(Cl)c1 | 5.57 | > 100 | 5.34 | > 100 | 3.13 | > 100 | – | – | 0.65 | > 100 | 1.16 | > 100 | 17.5 | > 100 | > 100 | > 100 | > 100 | 13.3 | > 100 | 33.8
C/C=C1\Oc2ccc(OC)cc2S1(=O)=O | – | > 100 | – | > 100 | – | > 100 | – | > 100 | – | – | – | > 100 | – | > 100 | > 100 | > 100 | > 100 | – | – | –
CCCCCOC(=O)Nc1nc(=O)n(C2OC(C)C(O)C2O)cc1F (stereo unspecified) | – | – | – | – | > 10000 | > 10000 | > 10000 | > 10000 | > 10000 | > 10000 | – | – | – | – | > 10000 | – | – | – | > 10000 | –
CC(=O)OC(COc1ccc2c(c1)[n+]([O-])nc(N)[n+]2[O-])CN1CCCCC1 (stereo unspecified) | – | 39.3 | – | 38 | – | 36.6 | – | > 100 | – | – | – | – | – | > 100 | > 100 | 24.2 | 16.5 | – | – | –
O=C(c1ccccc1)n1cc(/C=C/[N+](=O)[O-])c2ccccc21 | – | > 100 | – | > 100 | – | 39 | – | 54.1 | – | – | – | 36.9 | – | 36.9 | 77.3 | 96.7 | > 100 | – | – | –
O=c1cccccc1[O-].O=c1cccccc1[O-].O=c1cccccc1[O-].[Nd+3] | – | > 100 | – | 38.2 | – | > 100 | – | > 100 | – | – | – | 88 | – | 50.2 | > 100 | > 100 | > 100 | 81.4 | – | –
COc1ccc2nc3cc([N+](=O)[O-])ccc3c(NCCO)c2c1 | 4.87 | 31.7 | 2.41 | 10.2 | 2.5 | 11.4 | 1.86 | 7.02 | – | 30 | 1.93 | 5.23 | – | – | 3.99 | – | 32.7 | 12.7 | 1.77 | –
COc1ccccc1/C=C1\CCC(Cc2ccccc2)(CN(C)C)C1=O (stereo unspecified) | – | > 100 | – | 15.3 | – | 23.4 | – | 66.2 | – | – | – | > 26.1 | – | 51 | > 100 | > 100 | 27.6 | – | – | –
COC(=O)c1cc(O)ccc1O | – | > 100 | – | > 100 | – | > 100 | – | > 100 | – | – | – | > 100 | – | > 100 | > 100 | > 100 | – | – | – | –
COC(=O)C1c2cc3c(c(O)c2CCC1(C)O)C(=O)c1c(O)cc2c(c1C3=O)OC1OC2(C)C(O)C(N(C)C)C1O (stereo unspecified) | – | 1.17 | – | 1.62 | – | 2.63 | – | – | – | 1.79 | – | 1.91 | – | 1.55 | 1.45 | 1.17 | – | – | – | –
CNC(=O)/C=C/C1=CN2C(=O)c3ccc(C)c(O)c3NC(OC)C2C1 (stereo unspecified) | – | – | – | 0.417 | – | 9.15 | – | – | – | 0.447 | – | < 0.0154 | – | < 0.01 | 0.0244 | 0.0448 | 0.713 | – | – | –
OC1CC(O)O[C@H](c2ccccc2)C1 (stereo partly specified) | – | > 100 | – | > 100 | – | > 100 | – | > 100 | – | – | – | > 100 | – | > 100 | > 100 | > 100 | > 100 | – | – | –
Nc1nc(N)c2cc(S(=O)(=O)c3ccc4ccccc4c3)ccc2n1 | – | > 100 | – | > 100 | – | > 100 | – | 34.8 | – | > 100 | – | > 100 | 3.81 | 48 | – | > 100 | – | – | – | –
Cc1ccccc1N(CCC#N)C1=NN(C(=O)CC(=O)Nc2ccc(Cl)cc2)C(c2ccccc2)C1 (stereo unspecified) | – | > 100 | – | > 100 | – | > 100 | – | > 100 | – | – | – | > 100 | – | > 100 | > 100 | > 100 | – | – | – | –
CCCCCCCCCN=C(N)c1ccc(N2CCN(c3ccc(C(N)=NCCCCCCCCC)cc3)CC2)cc1 | 2.19 | 12.7 | 1.1 | 3.83 | 3.4 | > 50 | 4.1 | > 50 | 1.74 | 5.87 | 2.45 | 22.1 | 1.04 | 3.01 | > 50 | 3.74 | – | – | 3.86 | 1.37
CC1(C)CC[C@]23CC[C@]4(C)[C@H](CC[C@@H]5[C@@]6(C)CCCNC(C)(C)[C@@H]6CC[C@]54C)[C@H]2[C@H]1OC3 | 1.71 | 3.08 | 1.62 | 3.1 | 1.66 | 3.21 | – | – | 1.61 | 3.17 | 1.79 | 3.21 | 1.56 | 2.98 | 3.12 | 3.47 | 3.67 | 1.68 | 1.65 | 1.79
